pIC50: −log10 of the molar value. Several values for one entry are separate records, joined by “and”; a condition that tells them apart may be missing. Identical values can stand only once.
Assays:
Experiment in all cases: cell-based
hNav1.5 = hNav1.5 (Homo sapiens, UniProt Q14524); conditions: IonWorks Quattro; read-out: IC50 Nav1.5
hNav1.7 = hNav1.7 (Homo sapiens, UniProt Q15858); conditions: IonWorks Quattro; read-out: IC50 Nav1.7
hNav1.4 = hNav1.4 (Homo sapiens, UniProt P35499); conditions: for pIC50: IonWorks Quattro, read-out: IC50 Nav1.4; for Nav1.4/Nav1.7: ratio of IonWorks Quattro IC50 values
hNav1.3 = hNav1.3 (Homo sapiens, UniProt Q9NY46); conditions: IonWorks Quattro; read-out: IC50 Nav1.3
hNav1.3, sequence (Q9NY46 whole entry): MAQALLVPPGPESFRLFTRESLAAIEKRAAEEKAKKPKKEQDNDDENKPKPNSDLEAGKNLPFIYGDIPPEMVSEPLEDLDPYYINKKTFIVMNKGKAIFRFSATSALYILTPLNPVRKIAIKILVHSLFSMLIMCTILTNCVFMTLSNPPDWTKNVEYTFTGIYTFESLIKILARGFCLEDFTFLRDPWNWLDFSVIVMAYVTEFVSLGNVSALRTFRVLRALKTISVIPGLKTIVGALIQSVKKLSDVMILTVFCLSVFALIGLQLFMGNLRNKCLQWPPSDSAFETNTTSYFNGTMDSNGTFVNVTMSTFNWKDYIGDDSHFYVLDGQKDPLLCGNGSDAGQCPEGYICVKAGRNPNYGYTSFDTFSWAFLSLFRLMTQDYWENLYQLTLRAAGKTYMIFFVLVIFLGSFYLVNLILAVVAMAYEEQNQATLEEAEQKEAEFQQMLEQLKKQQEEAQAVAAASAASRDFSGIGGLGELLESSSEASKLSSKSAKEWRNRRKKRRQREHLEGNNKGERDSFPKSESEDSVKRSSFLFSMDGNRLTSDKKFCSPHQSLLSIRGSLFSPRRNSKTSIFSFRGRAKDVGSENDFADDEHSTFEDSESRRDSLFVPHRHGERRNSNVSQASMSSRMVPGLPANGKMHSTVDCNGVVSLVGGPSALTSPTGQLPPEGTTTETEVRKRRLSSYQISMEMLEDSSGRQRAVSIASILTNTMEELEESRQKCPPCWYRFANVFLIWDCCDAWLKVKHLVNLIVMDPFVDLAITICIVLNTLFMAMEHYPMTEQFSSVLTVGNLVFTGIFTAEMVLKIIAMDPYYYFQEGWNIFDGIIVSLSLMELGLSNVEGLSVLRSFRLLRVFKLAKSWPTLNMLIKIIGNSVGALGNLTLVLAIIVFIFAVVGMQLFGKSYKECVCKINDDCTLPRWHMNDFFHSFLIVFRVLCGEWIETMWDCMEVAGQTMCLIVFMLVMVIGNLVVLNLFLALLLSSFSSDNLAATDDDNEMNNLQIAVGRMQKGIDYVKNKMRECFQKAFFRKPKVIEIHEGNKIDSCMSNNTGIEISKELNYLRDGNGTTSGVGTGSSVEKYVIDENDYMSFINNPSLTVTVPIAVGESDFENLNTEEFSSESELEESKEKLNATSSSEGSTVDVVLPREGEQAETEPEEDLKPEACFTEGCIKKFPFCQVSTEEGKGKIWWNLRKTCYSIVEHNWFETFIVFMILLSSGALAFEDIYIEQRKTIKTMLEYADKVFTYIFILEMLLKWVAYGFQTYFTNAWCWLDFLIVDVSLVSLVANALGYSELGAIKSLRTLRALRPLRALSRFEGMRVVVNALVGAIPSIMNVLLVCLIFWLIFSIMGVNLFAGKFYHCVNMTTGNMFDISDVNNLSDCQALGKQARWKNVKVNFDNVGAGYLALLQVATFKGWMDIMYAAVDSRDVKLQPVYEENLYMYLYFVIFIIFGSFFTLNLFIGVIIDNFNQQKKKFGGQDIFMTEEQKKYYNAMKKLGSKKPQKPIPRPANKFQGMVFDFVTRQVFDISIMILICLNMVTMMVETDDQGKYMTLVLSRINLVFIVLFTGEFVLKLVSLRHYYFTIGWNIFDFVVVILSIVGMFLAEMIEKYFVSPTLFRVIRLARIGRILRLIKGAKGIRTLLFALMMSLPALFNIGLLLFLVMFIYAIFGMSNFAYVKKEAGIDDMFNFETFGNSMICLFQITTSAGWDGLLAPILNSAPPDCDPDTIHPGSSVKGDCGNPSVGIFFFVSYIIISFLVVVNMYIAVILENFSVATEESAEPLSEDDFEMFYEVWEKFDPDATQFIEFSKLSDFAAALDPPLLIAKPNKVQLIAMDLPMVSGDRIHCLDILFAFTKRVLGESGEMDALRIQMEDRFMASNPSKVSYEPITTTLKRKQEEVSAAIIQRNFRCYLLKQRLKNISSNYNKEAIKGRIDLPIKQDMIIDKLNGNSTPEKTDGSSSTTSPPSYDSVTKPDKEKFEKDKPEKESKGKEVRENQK

hNav1.7, sequence (Q15858 whole entry): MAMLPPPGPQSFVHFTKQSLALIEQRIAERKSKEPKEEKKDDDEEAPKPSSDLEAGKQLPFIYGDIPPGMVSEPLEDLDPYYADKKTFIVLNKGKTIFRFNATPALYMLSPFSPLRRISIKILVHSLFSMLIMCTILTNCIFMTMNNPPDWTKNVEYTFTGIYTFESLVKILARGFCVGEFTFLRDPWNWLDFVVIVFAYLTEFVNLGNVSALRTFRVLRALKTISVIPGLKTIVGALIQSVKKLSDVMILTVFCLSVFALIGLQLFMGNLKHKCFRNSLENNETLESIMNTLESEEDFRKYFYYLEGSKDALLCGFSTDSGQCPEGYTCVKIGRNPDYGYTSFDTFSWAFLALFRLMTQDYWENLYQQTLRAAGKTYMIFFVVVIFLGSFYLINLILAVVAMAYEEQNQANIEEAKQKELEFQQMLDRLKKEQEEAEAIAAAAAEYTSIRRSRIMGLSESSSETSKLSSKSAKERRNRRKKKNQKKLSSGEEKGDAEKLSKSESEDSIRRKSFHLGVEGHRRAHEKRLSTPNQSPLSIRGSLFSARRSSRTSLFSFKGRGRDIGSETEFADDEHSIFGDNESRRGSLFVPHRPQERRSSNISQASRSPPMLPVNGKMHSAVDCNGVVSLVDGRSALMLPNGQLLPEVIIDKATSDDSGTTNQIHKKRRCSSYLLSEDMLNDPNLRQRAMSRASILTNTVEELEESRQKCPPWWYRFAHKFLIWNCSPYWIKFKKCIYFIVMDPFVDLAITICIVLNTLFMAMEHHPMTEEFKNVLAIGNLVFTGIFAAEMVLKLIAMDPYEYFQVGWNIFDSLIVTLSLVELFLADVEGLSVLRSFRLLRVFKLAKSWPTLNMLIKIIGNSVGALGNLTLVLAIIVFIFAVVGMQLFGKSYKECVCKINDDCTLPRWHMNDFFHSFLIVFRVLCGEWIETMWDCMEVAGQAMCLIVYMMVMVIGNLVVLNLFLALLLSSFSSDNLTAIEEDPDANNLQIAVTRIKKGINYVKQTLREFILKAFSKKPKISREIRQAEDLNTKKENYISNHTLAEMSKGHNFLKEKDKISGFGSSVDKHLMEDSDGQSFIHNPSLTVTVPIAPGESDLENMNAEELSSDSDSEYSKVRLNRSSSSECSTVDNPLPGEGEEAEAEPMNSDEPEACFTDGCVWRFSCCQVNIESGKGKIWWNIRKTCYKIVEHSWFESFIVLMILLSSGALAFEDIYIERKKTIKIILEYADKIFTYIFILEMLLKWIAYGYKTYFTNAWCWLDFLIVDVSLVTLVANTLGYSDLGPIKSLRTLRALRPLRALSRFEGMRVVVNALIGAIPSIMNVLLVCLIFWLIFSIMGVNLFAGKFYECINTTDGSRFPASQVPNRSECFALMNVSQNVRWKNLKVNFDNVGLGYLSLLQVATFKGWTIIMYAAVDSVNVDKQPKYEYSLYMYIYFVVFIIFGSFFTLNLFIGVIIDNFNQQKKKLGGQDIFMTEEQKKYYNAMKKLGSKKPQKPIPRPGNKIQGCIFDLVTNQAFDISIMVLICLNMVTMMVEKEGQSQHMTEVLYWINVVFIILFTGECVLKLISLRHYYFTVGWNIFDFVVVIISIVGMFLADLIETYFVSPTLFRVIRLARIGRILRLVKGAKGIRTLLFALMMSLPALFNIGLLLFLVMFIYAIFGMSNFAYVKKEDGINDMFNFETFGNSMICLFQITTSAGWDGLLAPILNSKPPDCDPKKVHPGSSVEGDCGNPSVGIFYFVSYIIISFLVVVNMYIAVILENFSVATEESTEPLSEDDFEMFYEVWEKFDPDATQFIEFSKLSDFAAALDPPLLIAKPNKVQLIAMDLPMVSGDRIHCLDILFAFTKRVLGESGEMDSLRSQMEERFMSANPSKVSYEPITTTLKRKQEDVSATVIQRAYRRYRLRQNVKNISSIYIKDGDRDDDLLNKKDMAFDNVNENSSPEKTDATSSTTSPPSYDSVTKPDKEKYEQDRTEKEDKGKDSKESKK

Compound | pIC50 (hNav1.5) | pIC50 (hNav1.7) | pIC50 (hNav1.4) | Nav1.4/Nav1.7 (hNav1.4) | pIC50 (hNav1.3)
CC[C@H](C)[C@H](NC(=O)[C@@H](NC(=O)[C@H](CCCCN)NC(=O)[C@H](CCCNC(=N)N)NC(=O)[C@@H]1CSSC[C@@H]2NC(=O)[C@H](C)NC(=O)[C@H](CCCNC(=N)N)NC(=O)[C@H](CCCCN)NC(=O)[C@H](CO)NC(=O)[C@H](CC(=O)O)NC(=O)[C@@H]3CSSC[C@H](NC(=O)[C@H](CC(C)C)NC(=O)[C@H](CC(C)C)NC(=O)CNC(=O)[C@H](CCC(=O)O)NC(=O)[C@H](CSSC[C@H](NC(=O)[C@@H](N)Cc4ccc(O)cc4)C(=O)N[C@@H](CCC(N)=O)C(=O)N[C@@H](CCCCN)C(=O)N[C@@H](Cc4c[nH]c5ccccc45)C(=O)N[C@@H](CCSC)C(=O)N[C@@H](Cc4c[nH]c5ccccc45)C(=O)N[C@@H]([C@@H](C)O)C(=O)N3)NC2=O)C(=O)N[C@@H](CCCCN)C(=O)N[C@@H](CC(C)C)C(=O)N[C@@H](Cc2c[nH]c3ccccc23)C(=O)N1)[C@@H](C)CC)C(N)=O [compound 119] | 5.08 | 7.15 | 6.00 | 14 | 5.60
CC[C@H](C)[C@H](NC(=O)[C@@H](NC(=O)[C@H](CCCCN)NC(=O)[C@H](CCCNC(=N)N)NC(=O)[C@@H]1CSSC[C@@H]2NC(=O)[C@H](C)NC(=O)[C@H](CCCNC(=N)N)NC(=O)[C@H](CCCCN)NC(=O)[C@H](CO)NC(=O)[C@H](CC(=O)O)NC(=O)[C@@H]3CSSC[C@H](NC(=O)[C@H](C(C)C)NC(=O)[C@H](CC(C)C)NC(=O)CNC(=O)[C@H](CCC(=O)O)NC(=O)[C@H](CSSC[C@H](NC(=O)[C@@H](N)Cc4ccc(O)cc4)C(=O)N[C@@H](CCC(N)=O)C(=O)N[C@@H](CCCCN)C(=O)N[C@@H](Cc4c[nH]c5ccccc45)C(=O)N[C@@H](CCSC)C(=O)N[C@@H](Cc4c[nH]c5ccccc45)C(=O)N[C@@H]([C@@H](C)O)C(=O)N3)NC2=O)C(=O)N[C@@H](CCCCN)C(=O)N[C@@H](CC(C)C)C(=O)N[C@@H](Cc2c[nH]c3ccccc23)C(=O)N1)[C@@H](C)CC)C(N)=O [compound 120] | 5.15 | 7.00 | 5.52 | 31 | 5.47
CC[C@H](C)[C@H](NC(=O)[C@@H](NC(=O)[C@H](CCCCN)NC(=O)[C@H](CCCNC(=N)N)NC(=O)[C@@H]1CSSC[C@@H]2NC(=O)[C@H](C)NC(=O)[C@H](CCCNC(=N)N)NC(=O)[C@H](CCCCN)NC(=O)[C@H](CO)NC(=O)[C@H](CC(=O)O)NC(=O)[C@@H]3CSSC[C@H](NC(=O)[C@H](CCCNC(N)=O)NC(=O)[C@H](CC(C)C)NC(=O)CNC(=O)[C@H](CCC(=O)O)NC(=O)[C@H](CSSC[C@H](NC(=O)[C@@H](N)Cc4ccc(O)cc4)C(=O)N[C@@H](CCC(N)=O)C(=O)N[C@@H](CCCCN)C(=O)N[C@@H](Cc4c[nH]c5ccccc45)C(=O)N[C@@H](CCSC)C(=O)N[C@@H](Cc4c[nH]c5ccccc45)C(=O)N[C@@H]([C@@H](C)O)C(=O)N3)NC2=O)C(=O)N[C@@H](CCCCN)C(=O)N[C@@H](CC(C)C)C(=O)N[C@@H](Cc2c[nH]c3ccccc23)C(=O)N1)[C@@H](C)CC)C(N)=O [compound 122] | 5.17 | 7.40 | 6.30 | 15 | 6.46
CCC[C@@H]1NC(=O)[C@H](CC(C)C)NC(=O)CNC(=O)[C@H](CCC(=O)O)NC(=O)[C@@H]2CSSC[C@H](NC(=O)[C@@H](N)Cc3ccc(O)cc3)C(=O)N[C@@H](CCC(N)=O)C(=O)N[C@@H](CCCCN)C(=O)N[C@@H](Cc3c[nH]c4ccccc34)C(=O)N[C@@H](CCSC)C(=O)N[C@@H](Cc3c[nH]c4ccccc34)C(=O)N[C@@H]([C@@H](C)O)C(=O)N[C@H]3CSSC[C@H](NC1=O)C(=O)N[C@@H](CCCCN)C(=O)N[C@@H](CC(C)C)C(=O)N[C@@H](Cc1c[nH]c4ccccc14)C(=O)N[C@H](C(=O)N[C@@H](CCCNC(=N)N)C(=O)N[C@@H](CCCCN)C(=O)N[C@H](C(=O)N[C@H](C(N)=O)[C@@H](C)CC)[C@@H](C)CC)CSSC[C@H](NC(=O)[C@H](C)NC(=O)[C@H](CCCNC(=N)N)NC(=O)[C@H](CCCCN)NC(=O)[C@H](CO)NC(=O)[C@H](CC(=O)O)NC3=O)C(=O)N2 [compound 123] | 4.98 | 6.77 | 5.51 | 19 | < 5.30
CC[C@H](C)[C@H](NC(=O)[C@@H](NC(=O)[C@H](CCCCN)NC(=O)[C@H](CCCNC(=N)N)NC(=O)[C@@H]1CSSC[C@@H]2NC(=O)[C@H](C)NC(=O)[C@H](CCCNC(=N)N)NC(=O)[C@H](CCCCN)NC(=O)[C@H](CO)NC(=O)[C@H](CC(=O)O)NC(=O)[C@@H]3CSSC[C@H](NC(=O)[C@H](CO)NC(=O)[C@H](CC(C)C)NC(=O)CNC(=O)[C@H](CCC(=O)O)NC(=O)[C@H](CSSC[C@H](NC(=O)[C@@H](N)Cc4ccc(O)cc4)C(=O)N[C@@H](CCC(N)=O)C(=O)N[C@@H](CCCCN)C(=O)N[C@@H](Cc4c[nH]c5ccccc45)C(=O)N[C@@H](CCSC)C(=O)N[C@@H](Cc4c[nH]c5ccccc45)C(=O)N[C@@H]([C@@H](C)O)C(=O)N3)NC2=O)C(=O)N[C@@H](CCCCN)C(=O)N[C@@H](CC(C)C)C(=O)N[C@@H](Cc2c[nH]c3ccccc23)C(=O)N1)[C@@H](C)CC)C(N)=O [compound 125] | 5.04 | 7.52 | 6.40 | 17 | 6.54
CC[C@H](C)[C@H](NC(=O)[C@H](CCC(=O)O)NC(=O)[C@H](CCCCN)NC(=O)[C@H](CCCNC(=N)N)NC(=O)[C@@H]1CSSC[C@@H]2NC(=O)[C@H](C)NC(=O)[C@H](CCCNC(=N)N)NC(=O)[C@H](CCCCN)NC(=O)[C@H](CO)NC(=O)[C@H](CC(=O)O)NC(=O)[C@@H]3CSSC[C@H](NC(=O)[C@H](CCC(=O)O)NC(=O)[C@H](CC(C)C)NC(=O)CNC(=O)[C@H](CCC(=O)O)NC(=O)[C@H](CSSC[C@H](NC(=O)[C@@H](N)Cc4ccc(O)cc4)C(=O)N[C@@H](CCC(N)=O)C(=O)N[C@@H](CCCCN)C(=O)N[C@@H](Cc4c[nH]c5ccccc45)C(=O)N[C@@H](CCSC)C(=O)N[C@@H](Cc4c[nH]c5ccccc45)C(=O)N[C@@H]([C@@H](C)O)C(=O)N3)NC2=O)C(=O)N[C@@H](CCCCN)C(=O)N[C@@H](CC(C)C)C(=O)N[C@@H](Cc2c[nH]c3ccccc23)C(=O)N1)C(N)=O [compound 126] | 4.80 and 5.12 | 6.02 and 5.84 | < 5.30 | 5 and 3 | < 5.30
CC[C@H](C)[C@H](NC(=O)[C@H](Cc1ccc(C(=O)O)cc1)NC(=O)[C@H](CCCCN)NC(=O)[C@H](CCCNC(=N)N)NC(=O)[C@@H]1CSSC[C@@H]2NC(=O)[C@H](C)NC(=O)[C@H](CCCNC(=N)N)NC(=O)[C@H](CCCCN)NC(=O)[C@H](CO)NC(=O)[C@H](CC(=O)O)NC(=O)[C@@H]3CSSC[C@H](NC(=O)[C@H](CCC(=O)O)NC(=O)[C@H](CC(C)C)NC(=O)CNC(=O)[C@H](CCC(=O)O)NC(=O)[C@H](CSSC[C@H](NC(=O)[C@@H](N)Cc4ccc(O)cc4)C(=O)N[C@@H](CCC(N)=O)C(=O)N[C@@H](CCCCN)C(=O)N[C@@H](Cc4c[nH]c5ccccc45)C(=O)N[C@@H](CCSC)C(=O)N[C@@H](Cc4c[nH]c5ccccc45)C(=O)N[C@@H]([C@@H](C)O)C(=O)N3)NC2=O)C(=O)N[C@@H](CCCCN)C(=O)N[C@@H](CC(C)C)C(=O)N[C@@H](Cc2c[nH]c3ccccc23)C(=O)N1)C(N)=O [compound 127] | 4.78 | 5.63 | < 5.30 | 2 | < 5.30
CC[C@H](C)[C@H](NC(=O)[C@H](CC(=O)O)NC(=O)[C@H](CCCCN)NC(=O)[C@H](CCCNC(=N)N)NC(=O)[C@@H]1CSSC[C@@H]2NC(=O)[C@H](C)NC(=O)[C@H](CCCNC(=N)N)NC(=O)[C@H](CCCCN)NC(=O)[C@H](CO)NC(=O)[C@H](CC(=O)O)NC(=O)[C@@H]3CSSC[C@H](NC(=O)[C@H](CCC(=O)O)NC(=O)[C@H](CC(C)C)NC(=O)CNC(=O)[C@H](CCC(=O)O)NC(=O)[C@H](CSSC[C@H](NC(=O)[C@@H](N)Cc4ccc(O)cc4)C(=O)N[C@@H](CCC(N)=O)C(=O)N[C@@H](CCCCN)C(=O)N[C@@H](Cc4c[nH]c5ccccc45)C(=O)N[C@@H](CCSC)C(=O)N[C@@H](Cc4c[nH]c5ccccc45)C(=O)N[C@@H]([C@@H](C)O)C(=O)N3)NC2=O)C(=O)N[C@@H](CCCCN)C(=O)N[C@@H](CC(C)C)C(=O)N[C@@H](Cc2c[nH]c3ccccc23)C(=O)N1)C(N)=O [compound 128] | 4.86 | 5.87 | < 5.30 | 4 | < 5.30
CC[C@H](C)[C@H](NC(=O)[C@H](CC(C)C)NC(=O)[C@H](CCCCN)NC(=O)[C@H](CCCNC(=N)N)NC(=O)[C@@H]1CSSC[C@@H]2NC(=O)[C@H](C)NC(=O)[C@H](CCCNC(=N)N)NC(=O)[C@H](CCCCN)NC(=O)[C@H](CO)NC(=O)[C@H](CC(=O)O)NC(=O)[C@@H]3CSSC[C@H](NC(=O)[C@H](CCC(=O)O)NC(=O)[C@H](CC(C)C)NC(=O)CNC(=O)[C@H](CCC(=O)O)NC(=O)[C@H](CSSC[C@H](NC(=O)[C@@H](N)Cc4ccc(O)cc4)C(=O)N[C@@H](CCC(N)=O)C(=O)N[C@@H](CCCCN)C(=O)N[C@@H](Cc4c[nH]c5ccccc45)C(=O)N[C@@H](CCSC)C(=O)N[C@@H](Cc4c[nH]c5ccccc45)C(=O)N[C@@H]([C@@H](C)O)C(=O)N3)NC2=O)C(=O)N[C@@H](CCCCN)C(=O)N[C@@H](CC(C)C)C(=O)N[C@@H](Cc2c[nH]c3ccccc23)C(=O)N1)C(N)=O [compound 132] | 5.17 | 6.39 | < 5.30 | 12 | < 5.30
